From patent US8999970B2, “Administration of an anti-obesity compound to individuals with renal impairment” (Arena Pharmaceuticals, Inc., priority 2010, dated 2015)

What was measured:
[1] = Clinical trial APD356-016: plasma and urine pharmacokinetics of lorcaserin, M1 and M5 after a 10 mg dose in subjects with renal impairment; settings: for tmax: median; for Ae0-120 / fe0-120: urine
Protocol: The interaction of renal insufficiency with the pharmacokinetics, tolerability and safety of lorcaserin were evaluated in a formal PK study in subjects with renal impairment and in the populations studied in phase 2 and phase 3 clinical studies.
The pharmacokinetic properties of lorcaserin in subjects with varying degrees of renal impairment were evaluated in clinical trial APD356-016. At the time of study conduct and analysis, subjects were assigned to renal impairment groups based on creatinine clearance calculated using IDEAL body weight (Table 1). This calculation was used to avoid overestimation of creatinine clearance due to the excess body weight (overweight and obese subjects were enrolled in the trial). Summaries of pharmacokinetic properties by group assignment using creatinine clearance calculated using ACTUAL body weights are also provided in the sections that follow.
The FDA expects a reasonable margin between anticipated exposures and exposures that may produce toxicity. A reasonable margin can vary depending on the expected toxicity, but generally is an order of magnitude (10 times), but can sometimes be less for mild toxicity.
Table 13. Summary of Plasma Concentrations (ng/mL) of HSO3-APD356 Metabolite over Time by Group: Severe Renal Impairment Not Receiving Dialysis (see Table 13 next page)
Subject number 3140-505 was on dialysis and grouped in the end stage renal disease group.

[2] = Preclinical toxicology: lorcaserin, M1 and M5 pharmacokinetics after oral administration of lorcaserin, 52 wk, monkeys; settings: for AUC0-inf / AUClast / Cmax / tmax: Monkeys, 52 wk
Protocol: Lorcaserin doses of 0, 2, 10, 50, and 125 mg/kg in a 5 mL/kg dose volume were administered by nasogastric intubation once daily for 12 months to cynomolgus monkeys (4 to 6/sex/group). Two animals/sex from the control, 50 and 125 mg/kg groups were continued on study without further dosing for an additional 4 weeks prior to termination. For the first 91 days of the study, dose solutions were prepared using anhydrous lorcaserin. Starting on Day 92 and continuing for the remainder of the study, dose solutions were prepared using lorcaserin hemihydrate to match the intended commercial form. […] Evaluations included clinical signs, food consumption, BW, electrocardiograms, ophthalmic exams, and clinical pathology indices. Blood samples were collected for TK analysis on Day 1, Week 4, Day 91, Day 92, and Week 52. A full necropsy was conducted on all animals, and tissues were collected, preserved, processed, and examined microscopically. Additional sections of heart were collected to allow comprehensive evaluation of all heart valves. Heart histopathologic evaluation included atria, ventricles, interventricular septum, both AV valves (mitral and tricuspid), and the aortic and pulmonic valves.

[3] = 10 mg dose, Mild, actual BW groups
[4] = 10 mg dose, Mild, ideal BW groups
[5] = 10 mg dose, Moderate, actual BW groups
[6] = 10 mg dose, Moderate, ideal BW groups
[7] = 10 mg dose, Normal, actual BW groups
[8] = 10 mg dose, Normal, ideal BW groups
[9] = 10 mg dose, Severe N = 1, actual BW groups
[10] = 10 mg dose, Severe, ideal BW groups
[11] = ESRD, 10 mg QD Authentic, Day 1
[12] = Mild, 10 mg QD Authentic, Day 1
[13] = Moderate, 10 mg QD Authentic, Day 1
[14] = Normal, 10 mg QD Authentic, Day 1
[15] = Severe, 10 mg QD Authentic, Day 1
[16] = lorcaserin 10 mg/kg/day oral, F
[17] = lorcaserin 10 mg/kg/day oral, M
[18] = lorcaserin 50 mg/kg/day oral, F
[19] = lorcaserin 50 mg/kg/day oral, M
[20] = lorcaserin 125 mg/kg/day oral, F
[21] = lorcaserin 125 mg/kg/day oral, M

C[C@H]1CN(C(=O)O[C@@H]2O[C@H](C(=O)O)[C@@H](O)[C@H](O)[C@H]2O)CCc2ccc(Cl)cc21 [Compound M5, N-carbamoyl glucuronide of lorcaserin]
% AUC Extrapolated ([1]; 10 mg dose, ESRD (Period 1)): 14.7%
AUC0-inf ([1]; 10 mg dose, ESRD (Period 1)): 11200 ng·h/mL
AUC(0-t) ([1]; 10 mg dose, ESRD (Period 1)): 9530 ng·h/mL
AUClast ([1]; 10 mg dose, ESRD (Period 1)): 9530 ng·h/mL
Cmax ([1]; 10 mg dose, ESRD (Period 1)): 300 ng/mL
MRTinf ([1]; 10 mg dose, ESRD (Period 1)): 38.6 h
t1/2z ([1]; 10 mg dose, ESRD (Period 1)): 25.7 h
tmax ([1]; 10 mg dose, ESRD (Period 1)): 3.00 h
% AUC Extrapolated ([1]; 10 mg dose, ESRD (Period 2)): 26.9%
AUC0-inf ([1]; 10 mg dose, ESRD (Period 2)): 11900 ng·h/mL
AUC(0-t) ([1]; 10 mg dose, ESRD (Period 2)): 8240 ng·h/mL
AUClast ([1]; 10 mg dose, ESRD (Period 2)): 8240 ng·h/mL
Cmax ([1]; 10 mg dose, ESRD (Period 2)): 231 ng/mL
MRTinf ([1]; 10 mg dose, ESRD (Period 2)): 59.1 h
t1/2z ([1]; 10 mg dose, ESRD (Period 2)): 40.5 h
tmax ([1]; 10 mg dose, ESRD (Period 2)): 3.10 h
% AUC0-inf Extrapolated [1, 3]: 14.5%
AUC0-inf [1, 3]: 1040 ng·h/mL
AUClast [1, 3]: 914 ng·h/mL
Cmax [1, 3]: 91.9 ng/mL
MRTinf [1, 3]: 16.6 h
T1/2z [1, 3]: 13.5 h
tmax [1, 3]: 2 h
% AUC0-inf Extrapolated [1, 4]: 17.7%
AUC0-inf [1, 4]: 583 ng·h/mL
AUC(0-t) [1, 4]: 482 ng·h/mL
Cmax [1, 4]: 62.4 ng/mL
MRTinf [1, 4]: 13.5 h
T1/2z [1, 4]: 10.7 h
tmax [1, 4]: 2.00 h
% AUC0-inf Extrapolated [1, 5]: 12.1%
AUC0-inf [1, 5]: 1700 ng·h/mL
AUClast [1, 5]: 1510 ng·h/mL
Cmax [1, 5]: 134 ng/mL
MRTinf [1, 5]: 18.5 h
T1/2z [1, 5]: 14.4 h
tmax [1, 5]: 2 h
% AUC0-inf Extrapolated [1, 6]: 15.6%
AUC0-inf [1, 6]: 1100 ng·h/mL
AUC(0-t) [1, 6]: 944 ng·h/mL
Cmax [1, 6]: 96.4 ng/mL
MRTinf [1, 6]: 18.5 h
T1/2z [1, 6]: 15.4 h
tmax [1, 6]: 2.00 h
% AUC0-inf Extrapolated [1, 7]: 23.1%
AUC0-inf [1, 7]: 498 ng·h/mL
AUClast [1, 7]: 381 ng·h/mL
Cmax [1, 7]: 66.2 ng/mL
MRTinf [1, 7]: 14.2 h
T1/2z [1, 7]: 11.7 h
tmax [1, 7]: 2 h
% AUC0-inf Extrapolated [1, 8]: 26.3%
AUC0-inf [1, 8]: 475 ng·h/mL
AUC(0-t) [1, 8]: 345 ng·h/mL
Cmax [1, 8]: 70.5 ng/mL
MRTinf [1, 8]: 14.6 h
T1/2z [1, 8]: 12.2 h
tmax [1, 8]: 1.00 h
% AUC0-inf Extrapolated [1, 9]: 2.59%
AUC0-inf [1, 9]: 6480 ng·h/mL
AUClast [1, 9]: 6310 ng·h/mL
Cmax [1, 9]: 214 ng/mL
MRTinf [1, 9]: 33.4 h
T1/2z [1, 9]: 23.1 h
tmax [1, 9]: 4 h
% AUC0-inf Extrapolated [1, 10]: 8.46%
AUC0-inf [1, 10]: 2470 ng·h/mL
AUC(0-t) [1, 10]: 2290 ng·h/mL
Cmax [1, 10]: 153 ng/mL
MRTinf [1, 10]: 20.0 h
T1/2z [1, 10]: 14.9 h
tmax [1, 10]: 2.50 h
Ae0-120 [1, 3]: 7470 µg
fe0-120 [1, 3]: 0.417
Ae0-120 [1, 4]: 7160 µg
fe0-120 [1, 4]: 0.399
Ae0-120 [1, 5]: 6480 µg
fe0-120 [1, 5]: 0.361
Ae0-120 [1, 6]: 8000 µg
fe0-120 [1, 6]: 0.446
Ae0-120 [1, 7]: 8210 µg
fe0-120 [1, 7]: 0.458
Ae0-120 [1, 8]: 8540 µg
fe0-120 [1, 8]: 0.476
Ae0-120 [1, 9]: 6720 µg
fe0-120 [1, 9]: 0.375
Ae0-120 [1, 10]: 6300 µg
fe0-120 [1, 10]: 0.351
Amount in the body cleared during a standard 4-hour hemodialysis procedure ([1]; ESRD): Approximately 18%
Hemodialysis extraction ratio ([1]; ESRD): 18.4%
Removal by hemodialysis ([1]; ESRD): partially removed
AUC24 hr [1, 11]: 9530 ng·h/mL
Cmax [1, 11]: 300 ng/mL
t1/2 [1, 11]: 25.7 h
AUC24 hr [1, 12]: 482 ng·h/mL
Cmax [1, 12]: 62.4 ng/mL
t1/2 [1, 12]: 10.7 h
AUC24 hr [1, 13]: 944 ng·h/mL
Cmax [1, 13]: 96.4 ng/mL
t1/2 [1, 13]: 15.4 h
AUC24 hr [1, 14]: 345 ng·h/mL
Cmax [1, 14]: 70.5 ng/mL
t1/2 [1, 14]: 12.2 h
AUC24 hr [1, 15]: 2290 ng·h/mL
Cmax [1, 15]: 153 ng/mL
t1/2 [1, 15]: 14.9 h
Exposure (Geometric Mean Ratio for AUCinf) increase compared to normal subjects ([1]; mild (CLcr=51-80 mL/min)): 1.2 fold
Terminal half-life prolonged by ([1]; mild renal impairment): 0%
Exposure (Geometric Mean Ratio for AUCinf) increase compared to normal subjects ([1]; moderate (CLcr=31-50 mL/min)): 2.3 fold
Terminal half-life prolonged by ([1]; moderate renal impairment): 26%
Fractional excretion ([1]; normal renal function): 48%
Exposure (Geometric Mean Ratio for AUCinf) increase compared to normal subjects ([1]; severe (CLcr=5-30 mL/min)): 5.2 fold
Fractional excretion ([1]; severe renal impairment): 35%
Terminal half-life prolonged by ([1]; severe renal impairment): 22%
Highest individual AUC0-inf in a subject not on hemodialysis ([1]; subject 3140-010, creatinine clearance 9.9 mL/min): 6480 ng·h/mL
Highest observed Cmax in the clinical study ([1]; subject with ESRD (#3140-505)): 520 ng/mL
Highest AUC0-inf overall ([1]; subject with ESRD on hemodialysis): 20800 ng·h/mL
AUC0-inf ([2]; lorcaserin 2 mg/kg/day oral, F): 2130 ± 820 ng·h/mL
AUClast ([2]; lorcaserin 2 mg/kg/day oral, F): 1760 ± 830 ng·h/mL
Cmax ([2]; lorcaserin 2 mg/kg/day oral, F): 771 ± 104 ng/mL
tmax ([2]; lorcaserin 2 mg/kg/day oral, F): 0.5 ± 0.0 h
AUC0-inf ([2]; lorcaserin 2 mg/kg/day oral, M): 2380 ± 290 ng·h/mL
AUClast ([2]; lorcaserin 2 mg/kg/day oral, M): 1820 ± 570 ng·h/mL
Cmax ([2]; lorcaserin 2 mg/kg/day oral, M): 635 ± 310 ng/mL
tmax ([2]; lorcaserin 2 mg/kg/day oral, M): 0.8 ± 0.3 h
AUC0-inf [2, 16]: 6520 ± 1520 ng·h/mL
AUClast [2, 16]: 6140 ± 1710 ng·h/mL
tmax [2, 16]: 1.0 ± 0.7 h
AUC0-inf [2, 17]: 13600 ± 5000 ng·h/mL
AUClast [2, 17]: 12500 ± 6100 ng·h/mL
Cmax [2, 17]: 2480 ± 1140 ng/mL
tmax [2, 17]: 1.8 ± 0.5 h
AUC0-inf [2, 18]: 40400 ± 13400 ng·h/mL
AUClast [2, 18]: 38700 ± 12700 ng·h/mL
Cmax [2, 18]: 3600 ± 620 ng/mL
tmax [2, 18]: 3.2 ± 1.8 h
AUC0-inf [2, 19]: 71400 ± 26600 ng·h/mL
AUClast [2, 19]: 69000 ± 25800 ng·h/mL
Cmax [2, 19]: 7040 ± 2050 ng/mL
tmax [2, 19]: 2.3 ± 1.9 h
AUC0-inf [2, 20]: 140000 ± 78000 ng·h/mL
AUClast [2, 20]: 134000 ± 78000 ng·h/mL
Cmax [2, 20]: 19700 ± 13500 ng/mL
tmax [2, 20]: 2.7 ± 2.0 h
AUC0-inf [2, 21]: 182000 ± 77000 ng·h/mL
AUClast [2, 21]: 170000 ± 64000 ng·h/mL
Cmax [2, 21]: 15800 ± 3700 ng/mL
tmax [2, 21]: 2.2 ± 1.9 h
AUC0-inf in monkeys relative to predicted daily exposure in moderate renal impairment ([2]; monkeys 2 mg/kg/day): approximately equal
AUC0-inf in monkeys relative to predicted daily exposure in severe renal impairment ([2]; monkeys 2 mg/kg/day (NOAEL), human 10 mg BID): approximately half
Cmax in monkeys relative to predicted Cmax in severe renal impairment ([2]; monkeys 2 mg/kg/day (NOAEL), human 10 mg BID steady state): 2.8-3.5 times
Exposure in monkeys relative to predicted daily exposure in moderate renal impairment ([2]; monkeys 10 mg/kg/day): 3.0-6.3 times
AUC0-inf exposure margin, monkeys vs predicted daily exposure in severe renal impairment ([2]; monkeys 10 mg/kg/day, human 10 mg BID): 1.5-3.2 fold
Dose proportionality of plasma exposure ([2]; monkeys, Day 1, 2 to 125 mg/kg, both sexes): more than dose proportional
Exposure relative to the concomitant lorcaserin exposure, higher ([2]; monkeys, single or multiple doses of lorcaserin): up to 3 fold
